Test results from patent publication US6362369B1, “Phthalic acid diamide derivatives fluorine-containing aniline compounds as starting material, agricultural and horticultural insecticides, and a method for application of the insecticides” (Nihon Nohyaku Co., Ltd., priority 1997, dated 2002).

Key:
[1] = tested on: rice leafroller (Cnaphalocrocis medinalis); experiment: Insecticidal effect on rice leafroller (Test Example 3); assay type: in vivo; details: 500 ppm, 25° C., humidity 70%; for Insecticidal effect on rice leafroller (Test Example 3), judged grade / Insecticidal effect (Test Example 3), judged from mortality: rice lamina dip; for Insecticidal effect on rice leafroller (Test Example 3), judged grade: third-instar larvae; for Insecticidal effect on rice leafroller (Test Example 3), judged grade / Insecticidal effect, Test Example 3: four days after inoculation; for Insecticidal effect, Test Example 3: rice lamina immersed; for Insecticidal effect (Test Example 3), judged from mortality: 4 days after inoculation
Method: Insecticidal effect on rice leafroller (Cnaphalocrocis medinalis)
After air-drying, the lamina was placed in a plastic Petri dish with a diameter of 9 cm whose bottom had been covered with a wetted filter paper. The lamina was inoculated with third-instar larvae of rice leafroller, after which the dish was allowed to stand in a room thermostated at 25° C. and having a humidity of 70%. Four days after the inoculation, the dead and alive were counted and the insecticidal effect was judged according to the criterion shown in Test Example 1. The test was carried out with triplicate groups of 10 insects.

[2] = tested on: diamondback moth (Plutella xylostella); experiment: Insecticidal effect on diamondback moth (Test Example 1); assay type: in vivo; details: for Insecticidal effect on diamondback moth (Test Example 1), judged grade: mortality judged according to the criterion shown in Test Example 1; for Insecticidal effect, Test Example 1 / Insecticidal effect (Test Example 1), judged from mortality: diamondback moth; for Insecticidal effect (Test Example 1), judged from mortality: judged by the criterion of Test Example 1
Outline: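 Read-out was mortality from hatched-insect counts taken 6 days after the egg-bearing cabbage seedling was immersed, graded by set criteria. Seedlings were air-dried and kept at 25° C after treatment. Groups of 10 insects, in triplicate.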

[3] = rice leafroller third-instar larvae
[4] = mortality judged by criterion of Test Example 1
[5] = third-instar larvae of rice leafroller
[6] = judged by the mortality criterion of Test Example 1

CC(C)NC(=O)c1cccc(F)c1C(=O)Nc1ccc(OC(F)(F)F)cc1Cl [compound 562]
Insecticidal effect on rice leafroller (Test Example 3), judged grade [1]: A (100) | Insecticidal effect on diamondback moth (Test Example 1), judged grade [2]: A (100)

CC(C)NC(=O)c1c(C(=O)Nc2ccc(C(F)(F)F)cc2Cl)cccc1[N+](=O)[O-] [compound 660]
Insecticidal effect on rice leafroller (Test Example 3), judged grade [1]: A (100) | Insecticidal effect on diamondback moth (Test Example 1), judged grade [2]: A (100)

Cc1cc(C(F)(F)C(F)(F)F)ccc1NC(=O)c1cccc(I)c1C(=O)NC1CCCCC1 [compound 993]
Insecticidal effect, Test Example 3 [1, 3]: A (100) | Insecticidal effect, Test Example 1 [2, 4]: A (100)

Cc1cc(N(C)C)ccc1NC(=O)c1cccc([N+](=O)[O-])c1C(=O)NC(C)C [compound 723]
Insecticidal effect on rice leafroller (Test Example 3), judged grade [1]: D (79-50) | Insecticidal effect on diamondback moth (Test Example 1), judged grade [2]: D (79-50)

CC(C)NC(=O)c1cccc(I)c1C(=O)Nc1ccc(OC(F)(F)F)cc1Cl [compound 467]
Insecticidal effect on rice leafroller (Test Example 3), judged grade [1]: A (100) | Insecticidal effect on diamondback moth (Test Example 1), judged grade [2]: A (100)

Cc1cc(C(F)(F)C(F)(F)F)ccc1NC(=O)c1cccc(Cl)c1C(=O)NC(C)c1ccccc1 (centres unmarked) [compound 1321]
Insecticidal effect, Test Example 3 [1, 3]: A (100) | Insecticidal effect, Test Example 1 [2, 4]: A (100)

CC(C)NC(=O)c1c(C(=O)Nc2ccccc2)cccc1[N+](=O)[O-] [compound 585]
Insecticidal effect on rice leafroller (Test Example 3), judged grade [1]: A (100) | Insecticidal effect on diamondback moth (Test Example 1), judged grade [2]: A (100)

CCCCNC(=O)c1cccc(I)c1C(=O)Nc1ccc(C(F)(F)C(F)(F)F)cc1C [compound 946]
Insecticidal effect, Test Example 3 [1, 3]: A (100) | Insecticidal effect, Test Example 1 [2, 4]: A (100)

CC(C)NC(=O)c1c(Cl)cccc1C(=O)Nc1ccc([S+]([O-])C(F)(F)Br)cc1 (centres unmarked) [compound 1111]
Insecticidal effect, Test Example 3 [1, 3]: A (100) | Insecticidal effect, Test Example 1 [2, 4]: A (100)

Cc1cc(Sc2ccc(Cl)cc2)ccc1NC(=O)c1c(F)cccc1C(=O)NC(C)C [compound 575]
Insecticidal effect on rice leafroller (Test Example 3), judged grade [1]: A (100) | Insecticidal effect on diamondback moth (Test Example 1), judged grade [2]: A (100)

Cc1cc(C(F)(F)C(F)(F)F)ccc1NC(=O)c1c(Cl)cccc1C(=O)NC1CCCO1 (centres unmarked) [compound 1393]
Insecticidal effect, Test Example 3 [1, 3]: A (100) | Insecticidal effect, Test Example 1 [2, 4]: A (100)

CCN(CC)C(=O)c1c(F)cccc1C(=O)Nc1ccc(C(F)(F)C(F)(F)F)cc1F [compound 1530]
Insecticidal effect (Test Example 3), judged from mortality [1, 5]: A (100) | Insecticidal effect (Test Example 1), judged from mortality [2]: A (100)

Cc1cc(Oc2ncc(C(F)(F)F)cc2Cl)ccc1NC(=O)c1c(F)cccc1C(=O)NC(C)C [compound 577]
Insecticidal effect on rice leafroller (Test Example 3), judged grade [1]: A (100) | Insecticidal effect on diamondback moth (Test Example 1), judged grade [2]: A (100)

CCC(C)NC(=O)c1cccc(I)c1C(=O)Nc1ccc(C(F)(F)C(F)(F)F)cc1C (centres unmarked) [compound 1008]
Insecticidal effect, Test Example 3 [1, 3]: A (100) | Insecticidal effect, Test Example 1 [2, 4]: A (100)

CC(C)NC(=O)c1ccccc1C(=O)Nc1cccc(Cl)c1Cl [compound 41]
Insecticidal effect, Test Example 3 [1, 5]: A (100) | Insecticidal effect, Test Example 1 [2, 6]: A (100)

Cc1cc(C(F)(F)C(F)(F)F)ccc1NC(=O)c1cccc(Cl)c1C(=O)NCc1ccncc1 [compound 1394]
Insecticidal effect, Test Example 3 [1, 3]: A (100) | Insecticidal effect, Test Example 1 [2, 4]: A (100)

CCCN(CC)C(=O)c1c(F)cccc1C(=O)Nc1ccc(OC(F)F)cc1 [compound 1583]
Insecticidal effect (Test Example 3), judged from mortality [1, 5]: A (100) | Insecticidal effect (Test Example 1), judged from mortality [2]: A (100)

CCC(O)CNC(=O)c1c(Cl)cccc1C(=O)Nc1ccc(C(F)(F)C(F)(F)F)cc1C (centres unmarked) [compound 1318]
Insecticidal effect, Test Example 3 [1, 3]: A (100) | Insecticidal effect, Test Example 1 [2, 4]: A (100)

Cc1cc(I)ccc1NC(=O)c1c(Cl)cccc1C(=O)NC(C)C [compound 217]
Insecticidal effect, Test Example 3 [1, 5]: A (100) | Insecticidal effect, Test Example 1 [2, 6]: A (100)

CC(C)NC(=O)c1cccc(Cl)c1C(=O)Nc1ccc(OC(F)(F)F)cc1Br [compound 235]
Insecticidal effect, Test Example 3 [1, 5]: A (100) | Insecticidal effect, Test Example 1 [2, 6]: A (100)

CC(C)NC(=O)c1c(I)cccc1C(=O)Nc1ccc(C(F)(C(F)(F)F)C(F)(F)F)cc1Oc1ccccc1 [compound 1768]
Insecticidal effect (Test Example 3), judged from mortality [1, 5]: A (100) | Insecticidal effect (Test Example 1), judged from mortality [2]: A (100)

CC(C)NC(=O)c1cccc(Cl)c1C(=O)Nc1ccc(OC(F)F)cc1 [compound 200]
Insecticidal effect, Test Example 3 [1, 5]: A (100) | Insecticidal effect, Test Example 1 [2, 6]: A (100)

CSc1cccc(C(=O)Nc2ccc(Br)cc2C)c1C(=O)NC(C)C [compound 782]
Insecticidal effect on rice leafroller (Test Example 3), judged grade [1]: A (100) | Insecticidal effect on diamondback moth (Test Example 1), judged grade [2]: A (100)

CC(C)NC(=O)c1c(F)cccc1C(=O)Nc1ccc(C(F)(F)C(F)(F)C(F)(F)C(F)(F)F)cc1 [compound 472]
Insecticidal effect on rice leafroller (Test Example 3), judged grade [1]: B (99-90) | Insecticidal effect on diamondback moth (Test Example 1), judged grade [2]: A (100)

Cc1cc(OCC(F)(F)F)ccc1NC(=O)c1c(I)cccc1C(=O)NC(C)C [compound 443]
Insecticidal effect, Test Example 3 [1, 5]: D (79-50) | Insecticidal effect, Test Example 1 [2, 6]: A (100)

CCN(CC)C(=O)c1c(C(=O)Nc2ccc(OC(F)(F)F)cc2C)ccc(F)c1F [compound 1285]
Insecticidal effect, Test Example 3 [1, 3]: A (100) | Insecticidal effect, Test Example 1 [2, 4]: A (100)

Cc1cc(OC(F)F)ccc1NC(=O)c1ccc(F)cc1C(=O)NC(C)C [compound 531]
Insecticidal effect on rice leafroller (Test Example 3), judged grade [1]: A (100) | Insecticidal effect on diamondback moth (Test Example 1), judged grade [2]: A (100)

Cc1cc(C(F)(F)C(F)(F)F)ccc1NC(=O)c1cccc(Cl)c1C(=O)NCCc1ccc(Cl)cc1 [compound 1360]
Insecticidal effect, Test Example 3 [1, 3]: C (89-80) | Insecticidal effect, Test Example 1 [2, 4]: A (100)

Cc1cc(OCc2ccc(Cl)cc2)ccc1NC(=O)c1ccccc1C(=O)NC(C)C [compound 76]
Insecticidal effect, Test Example 3 [1, 5]: B (99-90) | Insecticidal effect, Test Example 1 [2, 6]: C (89-80)

CC(C)NC(=O)c1cccc(Cl)c1C(=O)Nc1ccc(OC(F)F)c(Cl)c1 [compound 232]
Insecticidal effect, Test Example 3 [1, 5]: A (100) | Insecticidal effect, Test Example 1 [2, 6]: A (100)

CC(C)(C)NC(=O)c1ccccc1C(=O)Nc1ccccc1 [compound 840]
Insecticidal effect on rice leafroller (Test Example 3), judged grade [1]: D (79-50) | Insecticidal effect on diamondback moth (Test Example 1), judged grade [2]: A (100)

CC(C)NC(=O)c1c(I)cccc1C(=O)Nc1ccc2c(c1)OC(F)(F)C2(F)F [compound 1620]
Insecticidal effect (Test Example 3), judged from mortality [1, 5]: A (100) | Insecticidal effect (Test Example 1), judged from mortality [2]: A (100)

C#CC(C)(C)NC(=O)c1c(Cl)cccc1C(=O)Nc1ccc(OC(F)F)cc1C [compound 1588]
Insecticidal effect (Test Example 3), judged from mortality [1, 5]: A (100) | Insecticidal effect (Test Example 1), judged from mortality [2]: A (100)

COc1ccccc1CNC(=O)c1c(Cl)cccc1C(=O)Nc1ccc(C(F)(F)C(F)(F)F)cc1C [compound 1343]
Insecticidal effect, Test Example 3 [1, 3]: A (100) | Insecticidal effect, Test Example 1 [2, 4]: A (100)

CCN(CC)C(=O)c1c(C(=O)Nc2ccc(C(F)(F)C(F)(F)F)cc2Cl)cccc1[N+](=O)[O-] [compound 1133]
Insecticidal effect, Test Example 3 [1, 3]: A (100) | Insecticidal effect, Test Example 1 [2, 4]: A (100)

CCCNC(=O)c1c(Cl)cccc1C(=O)Nc1ccc(C(F)(F)C(F)(F)C(F)(F)F)cc1F [compound 1493]
Insecticidal effect (Test Example 3), judged from mortality [1, 5]: A (100) | Insecticidal effect (Test Example 1), judged from mortality [2]: A (100)

Cc1cc(Cl)ccc1NC(=O)c1c(Cl)ccc(Cl)c1C(=O)NC(C)C [compound 259]
Insecticidal effect, Test Example 3 [1, 5]: D (79-50) | Insecticidal effect, Test Example 1 [2, 6]: A (100)

COCCNC(=O)c1cccc(I)c1C(=O)Nc1ccc(C(F)(F)C(F)(F)F)cc1C [compound 982]
Insecticidal effect, Test Example 3 [1, 3]: C (89-80) | Insecticidal effect, Test Example 1 [2, 4]: A (100)

CC(C)NC(=O)c1c(C(=O)Nc2cc(Cl)ccc2Cl)cccc1[N+](=O)[O-] [compound 634]
Insecticidal effect on rice leafroller (Test Example 3), judged grade [1]: D (79-50) | Insecticidal effect on diamondback moth (Test Example 1), judged grade [2]: A (100)

CC(C)NC(=O)c1c(Cl)cccc1C(=O)Nc1ccc(OC(F)F)c(Cl)c1 [compound 134]
Insecticidal effect, Test Example 3 [1, 5]: A (100) | Insecticidal effect, Test Example 1 [2, 6]: A (100)

Cc1cc(OC(F)(F)F)ccc1NC(=O)c1cccc(I)c1C(=O)NCCc1cccnc1 [compound 1772]
Insecticidal effect (Test Example 3), judged from mortality [1, 5]: A (100) | Insecticidal effect (Test Example 1), judged from mortality [2]: A (100)

Cc1ccc(NC(=O)c2cccc([N+](=O)[O-])c2C(=O)NC(C)C)c(C)c1Cl [compound 670]
Insecticidal effect on rice leafroller (Test Example 3), judged grade [1]: D (79-50) | Insecticidal effect on diamondback moth (Test Example 1), judged grade [2]: A (100)

Cc1cc(C(F)(F)C(F)(F)C(F)(F)F)ccc1NC(=O)c1c(F)cccc1C(=O)NC(C)C [compound 555]
Insecticidal effect on rice leafroller (Test Example 3), judged grade [1]: B (99-90) | Insecticidal effect on diamondback moth (Test Example 1), judged grade [2]: A (100)

CC(C)NC(=O)c1c(C(=O)Nc2ccc([N+](=O)[O-])cc2)cccc1[N+](=O)[O-] [compound 596]
Insecticidal effect on rice leafroller (Test Example 3), judged grade [1]: D (79-50) | Insecticidal effect on diamondback moth (Test Example 1), judged grade [2]: D (79-50)

Cc1cc(C(F)(F)C(F)(F)F)ccc1NC(=O)c1c(I)cccc1C(=O)NC(C)c1ccccn1 (centres unmarked) [compound 1778]
Insecticidal effect (Test Example 3), judged from mortality [1, 5]: A (100) | Insecticidal effect (Test Example 1), judged from mortality [2]: A (100)

CCN(CC)C(=O)c1c(F)cccc1C(=O)Nc1ccc(OC(F)(F)F)cc1C [compound 1527]
Insecticidal effect (Test Example 3), judged from mortality [1, 5]: A (100) | Insecticidal effect (Test Example 1), judged from mortality [2]: A (100)
